Data from paper PMC9505254 (Pathogens, 2022).
“Also recorded” adds a separate entry of the source.

Columns and labels:
[1] = test system: S. aureus (ATCC 25923) biofilm; test: Inhibition of biofilm formation (crystal violet); assay type: cell-based; settings: Staphylococcus aureus, ATCC25923, alone at 0.2 µg mL−1, 48 h, 37 °C, A600, triplicate
Description: The assay was made in flat-bottom 96-well polystyrene microplates as described by Bezerra et al.. The cell suspension was prepared using a single colony of S. aureus from a Petri dish with Mueller–Hinton broth (stock bacteria). The colony was transferred to Mueller–Hinton broth and incubated at 37 ℃ for 24 h. After, the cell suspension was standardized to a concentration of 10^6 cells mL^−1. […] The combination of peptide and antibiotic was made from the highest concentration of the peptide combined with the lowest antibiotic concentration and vice versa. After the incubation period, the supernatant was removed carefully from each well and washed one time with sterile NaCl 0.15 M solution. […] The absorbances were obtained via a microplate reader (BioTek^TM Epoch, BioTek Instruments, Inc., Winooski, VT, USA) at 600 nm. The experiment was repeated three times.

[2] = test system: S. aureus (ATCC 25923) preformed biofilm; test: Reduction of preformed biofilm mass (crystal violet); assay type: cell-based, Staphylococcus aureus
Description: After the incubation period, the supernatant was removed carefully from each well and washed one time with sterile NaCl 0.15 M solution. […] The absorbances were obtained via a microplate reader (BioTek^TM Epoch, BioTek Instruments, Inc., Winooski, VT, USA) at 600 nm. The experiment was repeated three times. The assay to observe the preformed biofilm reduction was conducted the same as described above but with some adjustments. […] The microplates were incubated in the dark, at 37 ℃, for 24 h. After incubation, the biofilm was washed, dried, and stained, and absorbance was taken as above.

[3] = test system: S. aureus biofilm cells; test: ROS overproduction (DCFH-DA, fluorescence microscopy); settings: ciprofloxacin alone at 6.2, 0.2, 25 or 0.02 µg mL−1 (Figures 4 and 5)
Description: The ROS overproduction was determined following the method described by Bezerra et al. [13]. The assays were conducted as the same for PI analysis. Then, 20 μL of 2',7' […] diacetate (DCFH-DA, Sigma, St. Louis, MI, USA) was added and incubated in the dark for 30 min at 24 °C. Finally, the biofilms were washed with 0.15 M NaCl and observed under a fluorescence microscope (Olympus System BX 41, Tokyo, Japan) with an excitation wavelength of 488 nm and an emission wavelength of 525 nm.

[4] = test system: type-A human erythrocytes
[5] = test system: type-B human erythrocytes
[6] = test system: type-O human erythrocytes

| Compound | inhibition at 0.2 µg/mL [1] | reduction of preformed biofilm ([2]; alone at 6.2 µg mL−1, 24 h biofilm, 24 h treatment, 37 °C, crystal violet, A600) | reduction of preformed biofilm ([2]; alone at 25 µg mL−1) | reduction of the biomass of preformed biofilm ([2]; ciprofloxacin alone at the Figure 1D concentrations (0.02, 0.39, 0.78, 6.2 µg mL−1)) | reduction of the biomass of preformed biofilm ([2]; each alone at the concentrations of the two Figure 1C combinations (RcAlb-PepI 0.04 and 0.2; ciprofloxacin 25 and 6.2 µg mL−1)) | ROS overproduction [3] | % Hemolysis Type-A Blood [4] | % Hemolysis Type-B Blood [5] | % Hemolysis Type-O Blood [6] |
| --- | --- | --- | --- | --- | --- | --- | --- | --- | --- |
| O=C(O)c1cn(C2CC2)c2cc(N3CCNCC3)c(F)cc2c1=O [Ciprofloxacin] | 10% | 0% | 8% | not effective | not effective | did not induce ROS; also recorded: not able to induce ROS accumulation | – | – | – |
| Triton X-100 | – | – | – | – | – | – | 100 ± 0.001% | 100 ± 0.001% | 100 ± 0.005% |
